How the values were obtained:
Acetylcholinesterase = Acetylcholinesterase (Homo sapiens, UniProt P22303); assay: DRUGMATRIX: Acetylcholinesterase enzyme inhibition (substrate: acetylthiocholine); format: cell-based, HEK293; conditions: Not Active = under 50% inhibition at 10 µM
[1] = target: 5-hydroxytryptamine receptor 1B (Rattus norvegicus, UniProt P28564); format: cell membranes, Wistar, Cerebral cortex, Membrane; further: in other assays of this panel Not Active means under 50% inhibition at 10 µM
Sequence of 5-hydroxytryptamine receptor 1B (P28564 whole entry): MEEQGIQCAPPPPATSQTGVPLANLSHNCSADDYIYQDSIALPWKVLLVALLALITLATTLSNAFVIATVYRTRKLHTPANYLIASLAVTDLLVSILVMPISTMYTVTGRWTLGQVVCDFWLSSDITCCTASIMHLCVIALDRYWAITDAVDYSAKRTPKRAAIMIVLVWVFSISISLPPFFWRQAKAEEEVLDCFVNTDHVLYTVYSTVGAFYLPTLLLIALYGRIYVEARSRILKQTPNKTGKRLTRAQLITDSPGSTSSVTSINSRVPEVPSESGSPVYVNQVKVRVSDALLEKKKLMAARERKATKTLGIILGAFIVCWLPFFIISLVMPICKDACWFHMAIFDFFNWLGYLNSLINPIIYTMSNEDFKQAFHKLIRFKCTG

[2] = target: Protein phosphatase 3 catalytic subunit alpha (Homo sapiens, UniProt Q08209); parameters: species or system Escherichia coli;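 further: inhibition of calcineurin (PP2B) enzyme activity, measured with DiFMUP as the substrate; in other assays of this panel Not Active means under 50% inhibition at 10 µM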
[3] = target: T1, Muscarinic acetylcholine receptor M2 (Homo sapiens, UniProt P08172); format: cell membranes, CHO-K1, Membrane; further: in other assays of this panel Not Active means under 50% inhibition at 10 µM
T1 sequence (P08172 whole entry): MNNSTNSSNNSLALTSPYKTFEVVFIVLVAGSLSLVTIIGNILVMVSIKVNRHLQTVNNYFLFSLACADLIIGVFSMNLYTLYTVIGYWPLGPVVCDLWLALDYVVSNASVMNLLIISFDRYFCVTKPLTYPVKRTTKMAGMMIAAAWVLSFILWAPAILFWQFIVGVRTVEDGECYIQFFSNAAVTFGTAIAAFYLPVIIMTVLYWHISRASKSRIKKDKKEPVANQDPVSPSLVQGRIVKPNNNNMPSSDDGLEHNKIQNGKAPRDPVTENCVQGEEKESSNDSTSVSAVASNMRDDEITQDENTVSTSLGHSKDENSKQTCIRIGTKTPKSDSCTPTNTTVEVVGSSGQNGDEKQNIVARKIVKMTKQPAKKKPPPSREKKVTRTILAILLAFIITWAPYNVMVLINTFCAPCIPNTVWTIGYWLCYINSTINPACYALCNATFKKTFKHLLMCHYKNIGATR

[4] = DRUGMATRIX: Calcium Channel Type L, Phenylalkylamine radioligand binding (ligand: [3H] (-)-Desmethoxyverapamil (D-888)); format: cell membranes, Rattus norvegicus, Wistar, Brain, Membrane; conditions: Not Active = under 50% inhibition at 10 µM

Sequence of Acetylcholinesterase (P22303 whole entry): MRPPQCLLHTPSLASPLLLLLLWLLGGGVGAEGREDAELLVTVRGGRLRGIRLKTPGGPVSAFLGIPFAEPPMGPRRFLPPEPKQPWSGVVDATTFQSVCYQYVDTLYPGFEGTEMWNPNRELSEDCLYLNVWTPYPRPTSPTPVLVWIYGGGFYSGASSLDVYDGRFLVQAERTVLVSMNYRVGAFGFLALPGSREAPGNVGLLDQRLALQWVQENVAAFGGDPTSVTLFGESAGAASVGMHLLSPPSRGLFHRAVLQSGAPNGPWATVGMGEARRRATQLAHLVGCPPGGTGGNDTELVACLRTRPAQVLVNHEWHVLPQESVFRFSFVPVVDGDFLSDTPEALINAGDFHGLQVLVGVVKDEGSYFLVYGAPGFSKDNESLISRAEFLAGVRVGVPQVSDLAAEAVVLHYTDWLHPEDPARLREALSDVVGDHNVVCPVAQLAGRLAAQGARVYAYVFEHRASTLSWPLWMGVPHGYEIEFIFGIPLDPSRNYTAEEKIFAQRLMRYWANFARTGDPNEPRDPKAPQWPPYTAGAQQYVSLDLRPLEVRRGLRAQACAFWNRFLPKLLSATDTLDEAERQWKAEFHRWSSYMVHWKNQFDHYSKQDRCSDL

CC(C)Cc1ccc([C@H](C)C(=O)O)cc1 [DEXIBUPROFEN]
Not Active: IC50 (Acetylcholinesterase; hek293) | IC50 [1] | IC50 [2] | IC50 ([3]; cho-k1) | IC50 [4] | Ki [4]

Cl.NC[C@H]1CC[C@H](C(=O)Oc2ccc(CCC(=O)O)cc2)CC1 [CETRAXATE HYDROCHLORIDE]
Not Active: IC50 (Acetylcholinesterase; hek293) | IC50 [1] | IC50 [2] | IC50 ([3]; cho-k1) | IC50 [4] | Ki [4]

Nc1nc(N)c2nc(CNc3ccc(C(=O)N[C@@H](CCC(=O)O)C(=O)O)cc3)cnc2n1 [AMINOPTERIN]
Not Active: IC50 (Acetylcholinesterase; hek293) | IC50 [1] | IC50 [2] | IC50 ([3]; cho-k1) | IC50 [4] | Ki [4]

NC(=O)NC(=O)Cc1ccccc1 [PHENACEMIDE]
Not Active: IC50 (Acetylcholinesterase; hek293) | IC50 [1] | IC50 [2] | IC50 ([3]; cho-k1) | IC50 [4] | Ki [4]

C[N+](C)(C)CCOC(N)=O.[Cl-] [CARBACHOL]
Not Active: IC50 (Acetylcholinesterase; hek293) | IC50 [1] | IC50 [2] | IC50 ([3]; cho-k1) | IC50 [4] | Ki [4]

O=C1c2ccccc2C(=O)C1c1ccccc1 [PHENINDIONE]
Not Active: IC50 (Acetylcholinesterase; hek293) | IC50 [1] | IC50 [2] | IC50 ([3]; cho-k1) | IC50 [4] | Ki [4]

CC(C)NCC(O)COc1ccc(CC(N)=O)cc1 (stereo not drawn) [ATENOLOL]
Not Active: IC50 (Acetylcholinesterase; hek293) | IC50 [1] | IC50 [2] | IC50 ([3]; cho-k1) | IC50 [4] | Ki [4]

OC[C@H]1O[C@@H]2O[C@H]3[C@H](O)[C@@H](O)[C@@H](O[C@H]4[C@H](O)[C@@H](O)[C@@H](O[C@H]5[C@H](O)[C@@H](O)[C@@H](O[C@H]6[C@H](O)[C@@H](O)[C@@H](O[C@H]7[C@H](O)[C@@H](O)[C@@H](O[C@H]8[C@H](O)[C@@H](O)[C@@H](O[C@H]1[C@H](O)[C@H]2O)O[C@@H]8CO)O[C@@H]7CO)O[C@@H]6CO)O[C@@H]5CO)O[C@@H]4CO)O[C@@H]3CO [BETADEX]
Not Active: IC50 (Acetylcholinesterase; hek293) | IC50 [1] | IC50 [2] | IC50 ([3]; cho-k1) | IC50 [4] | Ki [4]

COc1ccc(Cl)cc1C(=O)NCCc1ccc(S(=O)(=O)NC(=O)NC2CCCCC2)cc1 [GLYBURIDE]
Not Active: IC50 (Acetylcholinesterase; hek293) | IC50 [1] | IC50 [2] | IC50 ([3]; cho-k1) | IC50 [4] | Ki [4]

CCN1CCN(C(=O)N[C@@H](C(=O)N[C@@H]2C(=O)N3[C@@H]2SC(C)(C)[C@@H]3C(=O)O)c2ccccc2)C(=O)C1=O [PIPERACILLIN]
Not Active: IC50 (Acetylcholinesterase; hek293) | IC50 [1] | IC50 [2] | IC50 ([3]; cho-k1) | IC50 [4] | Ki [4]

CNC[C@H](O)c1ccc(O)c(O)c1 [EPINEPHRINE]
Not Active: IC50 (Acetylcholinesterase; hek293) | IC50 [1] | IC50 [2] | IC50 ([3]; cho-k1) | IC50 [4] | Ki [4]

CCC1(c2ccccc2)C(=O)NC(=O)NC1=O [PHENOBARBITAL]
Not Active: IC50 (Acetylcholinesterase; hek293) | IC50 [1] | IC50 [2] | IC50 ([3]; cho-k1) | IC50 [4] | Ki [4]

CC1(COc2ccc(CC3SC(=O)NC3=O)cc2)CCCCC1 (stereo not drawn) [CIGLITAZONE]
7.5 µM: Ki ([3]; read-out: Ki)
Not Active: IC50 [1] | IC50 [2] | IC50 [4] | Ki [4]
21.1 µM: IC50 ([3]; read-out: IC50)
15 µM: IC50 (Acetylcholinesterase; read-out: IC50)

O=C(O)CNCP(=O)(O)O [GLYPHOSATE]
Not Active: IC50 (Acetylcholinesterase; hek293) | IC50 [1] | IC50 [2] | IC50 ([3]; cho-k1) | IC50 [4] | Ki [4]

OC[C@H]1O[C@@H]2O[C@H]3[C@H](O)[C@@H](O)[C@@H](O[C@H]4[C@H](O)[C@@H](O)[C@@H](O[C@H]5[C@H](O)[C@@H](O)[C@@H](O[C@H]6[C@H](O)[C@@H](O)[C@@H](O[C@H]7[C@H](O)[C@@H](O)[C@@H](O[C@H]1[C@H](O)[C@H]2O)O[C@@H]7CO)O[C@@H]6CO)O[C@@H]5CO)O[C@@H]4CO)O[C@@H]3CO [ALFADEX]
Not Active: IC50 (Acetylcholinesterase; hek293) | IC50 [1] | IC50 [2] | IC50 ([3]; cho-k1) | IC50 [4] | Ki [4]

Nc1nc(F)nc2c1ncn2[C@@H]1O[C@H](CO)[C@@H](O)[C@@H]1O [FLUDARABINE]
Not Active: IC50 (Acetylcholinesterase; hek293) | IC50 [1] | IC50 [2] | IC50 ([3]; cho-k1) | IC50 [4] | Ki [4]

O=C(O)CO [GLYCOLIC ACID]
Not Active: IC50 (Acetylcholinesterase; hek293) | IC50 [1] | IC50 [2] | IC50 ([3]; cho-k1) | IC50 [4] | Ki [4]

O=C(NCCN1CCOCC1)c1ccc(Cl)cc1 [MOCLOBEMIDE]
Not Active: IC50 (Acetylcholinesterase; hek293) | IC50 [1] | IC50 [2] | IC50 ([3]; cho-k1) | IC50 [4] | Ki [4]

CARBOXYMETHYLCELLULOSE
Not Active: IC50 (Acetylcholinesterase; hek293) | Ki (Acetylcholinesterase; hek293) | IC50 [1] | Ki [1] | IC50 [2] | Ki [2] | IC50 ([3]; cho-k1) | Ki ([3]; cho-k1) | IC50 [4] | Ki [4]

COc1ccccc1OCCNCC(O)COc1cccc2[nH]c3ccccc3c12 (stereo not drawn) [CARVEDILOL]
389 nM: IC50 ([4]; read-out: IC50)
Not Active: IC50 (Acetylcholinesterase; hek293) | IC50 [2] | IC50 ([3]; cho-k1)
1300 nM: IC50 ([1]; read-out: IC50)
378 nM: Ki ([4]; read-out: Ki)
589 nM: Ki ([1]; read-out: Ki)

NC(N)=Nc1nc(CSCCC(N)=NS(N)(=O)=O)cs1 [FAMOTIDINE]
Not Active: IC50 (Acetylcholinesterase; hek293) | IC50 [1] | IC50 [2] | IC50 ([3]; cho-k1) | IC50 [4] | Ki [4]

COc1ccc(C[C@H](N)C(=O)N[C@H]2[C@@H](O)[C@H](n3cnc4c(N(C)C)ncnc43)O[C@@H]2CO)cc1 [PUROMYCIN]
Not Active: IC50 (Acetylcholinesterase; hek293) | IC50 [1] | IC50 [2] | IC50 ([3]; cho-k1) | IC50 [4] | Ki [4]

— ChEMBL document CHEMBL1909046, “DrugMatrix in vitro pharmacology data”
